From patent publication US10409869B2, “(R)- and (S)-1-(3-(3-N,N-dimethylaminocarbonyl)phenoxyl-4-nitrophenyl)-1-ethyl-N,N'-bis (ethylene)phosphoramidate, compositions and methods for their use and preparation” (OBI Pharma, Inc., priority 2015, dated 2019)

Assays:
AKR1C3 [1] = target: T1, AKR1C3 (Homo sapiens, UniProt P42330); test: Activation by the aldoketo reductase AKR1C3, LC/MS/MS of % remaining; assay type: biochemical; details: 5 μM, 25 μg/mL AKR1C3, 2 mM NADPH, 37° C., up to 120 min, FIG. 2
T1 sequence (P42330 1-323): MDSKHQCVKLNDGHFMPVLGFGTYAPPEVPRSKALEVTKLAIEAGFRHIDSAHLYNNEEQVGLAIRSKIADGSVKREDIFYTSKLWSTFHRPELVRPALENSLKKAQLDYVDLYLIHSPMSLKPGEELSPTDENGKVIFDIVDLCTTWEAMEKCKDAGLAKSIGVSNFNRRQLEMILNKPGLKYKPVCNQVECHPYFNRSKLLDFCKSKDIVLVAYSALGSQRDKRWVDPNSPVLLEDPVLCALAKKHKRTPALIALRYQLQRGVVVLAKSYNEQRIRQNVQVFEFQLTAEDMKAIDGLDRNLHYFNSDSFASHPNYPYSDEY
Method: Recombinant human AKR1C3 was diluted to 25 μg/mL in phosphate buffered saline (PBS), pH 7.4 (37° C.), containing 2 mM NADPH. TH2870 or progesterone (positive control) in 30% methanol/70% water was added to the reaction mixture at a final concentration of 5 μM and incubated at 37° C. for 120 minutes. At various times up to 120 min, 50 μL of the reaction mixture was taken and 200 μL acetonitrile containing propranolol as internal standard was added, vortex-mixed and centrifuged for 10 min. The resulting supernatant (5 μL) was injected into a LC/MS/MS for quantitation of % remaining TH 2870 and progesterone. The compounds were tested in duplicates.

AKR1C3 [2] = target: T1, AKR1C3; details: cited from earlier work
[3] = human, in vivo; cited from earlier work
[4] = Body weight and toxicity in the orthotopic HepG2-GFP mouse model; assay type: in vivo, nude mice; details: 30 mg/kg, Qdx35, gavage
[5] = tested on: HepG2-GFP human hepatocellular carcinoma; test: Orthotopic HepG2-GFP human hepatocellular carcinoma mouse model, tumor burden; assay type: in vivo, nude mice
Method: Female athymic nude mice (6 weeks of age) were used in this study. The animals were purchased from Beijing HFK Bioscience, Co., Ltd and maintained in a High Efficiency Particulate Air Filter (HEPA) filtered environment with cages, food, and bedding sterilized by irradiation or autoclaving. A total of 32 nude mice were used for the study. HepG2-GFP human hepatocellular carcinoma cells (AntiCancer, Inc., San Diego, Calif.) were incubated with RPMI-1640 (Gibco-BRL, Life Technologies, Inc.), which contained 10% FBS. Cells were grown in a CO2 Water Jacketed Incubator (Forma Scientific) maintaining 37° C. and a 5% CO2/95% air atmosphere. Cell viability was determined by trypan blue exclusion analysis. Five female athymic nude mice were injected subcutaneously with a single dose of 5×10^6 HepG2-GFP cells. Tumors were harvested when their size reached 1 cm^3 and the tumor tissues were then cut into small fragments of 1 mm^3. Forty female nude mice were implanted orthotopically with a single piece of tumor fragment, which was derived from a subcutaneous tumor model of HepG2-GFP human hepatocellular carcinoma. The tumor tissue was orthotopically implanted in the right lobe of the liver in each mouse by SOI (Surgical Orthotopic Implantation). […]
During the period of the study, all of the experimental mice were checked daily for mortality or signs of morbidity. […] The body weights of the mice were measured twice weekly during the study period. […] Comparisons of body weights and tumor burdens in different groups were analyzed using the Student's t-test with an α=0.05 (two-sided). […]
The progressions of orthotopic HepG2-GFP hepatocellular carcinoma in different groups were monitored by real time imaging. […] Typical tumor images at the end of the study in each group and tumor growth curves derived from the signals of tumor fluorescence, which were analyzed using the Power Station software (INDEC Biosystems, CA, USA), are shown in FIG. 6 and FIG. 7, respectively
Tumor IR was calculated based on the final average tumor weights according to the formula: IR (%)=(1−treatment(t)/control(c))×100

CC(OP(=O)(N1CC1)N1CC1)c1ccc([N+](=O)[O-])c(Oc2cccc(C(=O)N(C)C)c2)c1 (racemic) [TH 2870, (R,S)-1-(3-(3-N,N-dimethylaminocarbonyl)phenoxyl-4-nitrophenyl)-1-ethyl-N,N′-bis(ethylene)phosphoramidate]
disappearance (% remaining) in the presence of AKR1C3 (AKR1C3 [1]): rapid disappearance

CS(=O)(=O)OCCN(CCBr)c1c(C(=O)NCCOP(=O)(O)O)cc([N+](=O)[O-])cc1[N+](=O)[O-] [PR 104]
substrate for AKR1C3 (AKR1C3 [2]): weak substrate | efficacy in clinical trials [3]: ineffective

CC(=O)[C@H]1CC[C@H]2[C@@H]3CCC4=CC(=O)CC[C@]4(C)[C@H]3CC[C@]12C [Progesterone, reference compound]
disappearance (% remaining) in the presence of AKR1C3 (AKR1C3 [1]): reduced slowly

CNC(=O)c1cc(Oc2ccc(NC(=O)Nc3ccc(Cl)c(C(F)(F)F)c3)cc2)ccn1 [Sorafenib, sorafenib]
Body Weight Growth Rate [4]: 21% | Day 0, Body Weight (mean ± sd) [4]: 15.1 ± 1.1 g | Day 35, Body Weight (mean ± sd) [4]: 18.2 ± 0.8 g | toxicity to the experimental mice ([4]; body weight lower than negative control): a certain degree of toxicity | average tumor size, % less than in the negative control group ([5]; 30 mg/kg, Qdx35, gavage, P=0.0577): about 39% | inhibitory effect on orthotopic HepG2-GFP model ([5]; at tested dosages): had inhibitory effect
